Experiment in all cases: AlphaScreen proximity-based integrin binding assay with TGF-b1 LAP
Common to all, as to settings: values given as ranges
Background: In Alpha technology, singlet oxygen from a donor bead excites a nearby acceptor bead.

One experiment deals with human integrin αVβ8 (Homo sapiens, UniProt P06756+P26012). The method in brief: (§1)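 Purified human integrin incubated with compound, TGF-b1 LAP, biotinylated anti-LAP antibody and acceptor beads for 2 h, then streptavidin donor beads 30 min, room temperature, in 50 mM Tris-HCl pH 7.5, 0.1% BSA, 1 mM CaCl2/MgCl2. AlphaScreen signal (680 nm excitation, 520-620 nm emission); IC50 by four-parameter fit.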

The target in the next experiment is human integrin αVβ1 (Homo sapiens, UniProt P05556+P06756). The method in brief:
as §1

The target in another experiment is human integrin αVβ6 (Homo sapiens, UniProt P06756+P18564). A digest of the protocol: as §1

24 compounds from patent US20240245682A1, “ALPHA-V-BETA-8 INTEGRIN INHIBITORS AND USES THEREOF” (Pliant Therapeutics, Inc., priority 2022, published 2024) can be followed below.

Sequence of human integrin αVβ8 (P06756 31-992 limits assumed): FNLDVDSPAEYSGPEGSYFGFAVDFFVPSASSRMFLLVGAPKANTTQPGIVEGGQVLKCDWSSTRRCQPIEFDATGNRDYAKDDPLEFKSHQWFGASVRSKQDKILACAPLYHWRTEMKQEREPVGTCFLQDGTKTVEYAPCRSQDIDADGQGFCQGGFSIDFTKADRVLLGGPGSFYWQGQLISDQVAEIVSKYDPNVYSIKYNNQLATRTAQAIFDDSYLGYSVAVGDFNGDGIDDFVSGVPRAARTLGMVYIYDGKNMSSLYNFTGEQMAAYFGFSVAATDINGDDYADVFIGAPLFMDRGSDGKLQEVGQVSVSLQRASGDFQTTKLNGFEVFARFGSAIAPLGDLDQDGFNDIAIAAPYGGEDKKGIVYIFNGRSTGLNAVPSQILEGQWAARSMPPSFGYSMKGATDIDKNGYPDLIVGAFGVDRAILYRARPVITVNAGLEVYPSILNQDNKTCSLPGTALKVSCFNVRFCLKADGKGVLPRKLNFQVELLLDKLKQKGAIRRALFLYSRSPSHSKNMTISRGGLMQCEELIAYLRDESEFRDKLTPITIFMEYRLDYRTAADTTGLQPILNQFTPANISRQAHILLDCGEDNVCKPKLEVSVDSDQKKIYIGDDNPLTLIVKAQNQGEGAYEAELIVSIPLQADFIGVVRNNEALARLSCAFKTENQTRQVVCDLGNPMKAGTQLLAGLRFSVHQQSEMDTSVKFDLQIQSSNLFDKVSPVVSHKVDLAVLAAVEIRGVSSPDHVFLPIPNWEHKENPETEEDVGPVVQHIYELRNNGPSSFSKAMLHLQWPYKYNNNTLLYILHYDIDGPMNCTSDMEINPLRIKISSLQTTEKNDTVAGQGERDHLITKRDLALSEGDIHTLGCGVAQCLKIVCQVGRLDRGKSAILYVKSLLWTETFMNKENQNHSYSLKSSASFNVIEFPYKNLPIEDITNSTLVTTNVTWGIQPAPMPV
Sequence of human integrin αVβ8 (P26012 43-684 limits assumed): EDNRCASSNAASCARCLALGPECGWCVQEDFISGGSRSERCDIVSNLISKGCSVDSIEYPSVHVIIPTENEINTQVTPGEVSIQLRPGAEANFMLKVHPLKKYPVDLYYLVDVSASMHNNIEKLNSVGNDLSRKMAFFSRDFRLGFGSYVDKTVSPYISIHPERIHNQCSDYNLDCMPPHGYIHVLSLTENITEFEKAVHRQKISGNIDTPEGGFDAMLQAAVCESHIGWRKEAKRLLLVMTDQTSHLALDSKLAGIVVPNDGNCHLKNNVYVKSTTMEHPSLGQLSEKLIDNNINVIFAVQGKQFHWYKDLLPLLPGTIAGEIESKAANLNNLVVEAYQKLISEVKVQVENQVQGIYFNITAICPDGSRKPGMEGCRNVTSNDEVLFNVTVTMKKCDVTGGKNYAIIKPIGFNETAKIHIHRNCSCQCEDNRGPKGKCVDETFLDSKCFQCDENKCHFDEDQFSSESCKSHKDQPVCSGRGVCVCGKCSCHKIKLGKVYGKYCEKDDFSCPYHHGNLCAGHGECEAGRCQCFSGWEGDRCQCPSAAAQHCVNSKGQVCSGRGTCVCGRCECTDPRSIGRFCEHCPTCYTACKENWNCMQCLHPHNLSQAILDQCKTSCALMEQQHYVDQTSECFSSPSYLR
Sequence of human integrin αVβ1 (P06756 31-992 limits assumed): as the sequence (P06756 31-992 limits assumed) above
Sequence of human integrin αVβ1 (P05556 21-728 limits assumed): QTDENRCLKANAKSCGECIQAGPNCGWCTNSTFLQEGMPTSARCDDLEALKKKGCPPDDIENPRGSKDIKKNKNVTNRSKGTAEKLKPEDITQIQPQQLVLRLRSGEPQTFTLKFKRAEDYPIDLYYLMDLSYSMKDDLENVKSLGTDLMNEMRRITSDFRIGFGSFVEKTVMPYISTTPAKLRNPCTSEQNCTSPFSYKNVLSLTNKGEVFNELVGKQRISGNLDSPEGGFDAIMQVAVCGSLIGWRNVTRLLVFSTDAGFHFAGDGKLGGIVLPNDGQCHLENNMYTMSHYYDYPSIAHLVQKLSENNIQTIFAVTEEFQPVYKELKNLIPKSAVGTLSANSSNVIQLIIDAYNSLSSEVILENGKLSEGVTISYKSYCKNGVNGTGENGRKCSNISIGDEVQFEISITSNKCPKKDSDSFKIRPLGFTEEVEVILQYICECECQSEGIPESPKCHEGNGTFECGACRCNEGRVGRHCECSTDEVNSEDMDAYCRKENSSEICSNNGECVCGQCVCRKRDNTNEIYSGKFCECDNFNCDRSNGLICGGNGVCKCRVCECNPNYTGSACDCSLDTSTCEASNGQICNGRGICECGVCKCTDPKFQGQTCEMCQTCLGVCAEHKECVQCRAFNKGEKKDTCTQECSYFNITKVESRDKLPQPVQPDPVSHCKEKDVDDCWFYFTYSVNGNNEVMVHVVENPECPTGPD
Sequence of human integrin αVβ6 (P06756 31-992 limits assumed): as the sequence (P06756 31-992 limits assumed) above
Sequence of human integrin αVβ6 (P18564 22-707 limits assumed): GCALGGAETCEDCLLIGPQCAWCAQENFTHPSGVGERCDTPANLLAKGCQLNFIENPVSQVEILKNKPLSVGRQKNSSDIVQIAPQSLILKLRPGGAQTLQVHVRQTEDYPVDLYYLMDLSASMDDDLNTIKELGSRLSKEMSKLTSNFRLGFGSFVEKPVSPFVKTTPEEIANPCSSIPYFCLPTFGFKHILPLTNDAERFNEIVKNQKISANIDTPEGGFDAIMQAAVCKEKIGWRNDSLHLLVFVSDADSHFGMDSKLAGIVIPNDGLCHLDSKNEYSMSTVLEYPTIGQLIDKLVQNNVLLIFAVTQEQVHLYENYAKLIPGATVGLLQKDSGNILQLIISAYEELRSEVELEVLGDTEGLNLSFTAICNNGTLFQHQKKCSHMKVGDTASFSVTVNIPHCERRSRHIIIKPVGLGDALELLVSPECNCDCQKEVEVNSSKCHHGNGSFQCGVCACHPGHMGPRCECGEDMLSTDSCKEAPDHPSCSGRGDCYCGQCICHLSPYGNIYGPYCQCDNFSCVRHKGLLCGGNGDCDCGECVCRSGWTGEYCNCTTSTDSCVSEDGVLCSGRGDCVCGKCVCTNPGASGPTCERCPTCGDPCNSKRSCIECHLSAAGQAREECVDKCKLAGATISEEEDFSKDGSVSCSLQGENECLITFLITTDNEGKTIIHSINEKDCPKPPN

On to `COc1cccc(C#N)c1C1(C(=O)N[C@@H](CCOCCCCc2ccc3c(n2)NCCC3)C(=O)O)CC1` [Compound 56, N-(1-(2-cyano-6-methoxyphenyl)cyclopropane-1-carbonyl)-O-(4-(5,6,7,8-tetrahydro-1,8-naphthyridin-2-yl)butyl)-L-homoserine], for which the IC50 (usually the concentration that gives 50% inhibition) at human integrin αVβ8 is under 50 nM; at human integrin αVβ1 it was 50 to 150 nM; at human integrin αVβ6, at least 500 nM.

In the case of `O=C(O)[C@H](CCOCCCCc1ccc2c(n1)NCCC2)NC(=O)C1(c2c(Cl)cncc2Cl)CC1` [Compound 24, N-(1-(3,5-dichloropyridin-4-yl)cyclopropane-1-carbonyl)-O-(4-(5,6,7,8-tetrahydro-1,8-naphthyridin-2-yl)butyl)-L-homoserine], the concentration for half-maximal inhibition (IC50) is under 50 nM on human integrin αVβ8, under 50 nM on human integrin αVβ1 and 50 to 150 nM on human integrin αVβ6.

Regarding `O=C(O)[C@H](CCOCCCCc1ccc2c(n1)NCCC2)NC(=O)C1(c2ccccc2Cl)CC1` [Compound 6, N-(1-(2-chlorophenyl)cyclopropane-1-carbonyl)-O-(4-(5,6,7,8-tetrahydro-1,8-naphthyridin-2-yl)butyl)-L-homoserine], the IC50 is under 50 nM at human integrin αVβ8, under 50 nM on human integrin αVβ1 and at least 500 nM on human integrin αVβ6.

Turning to `Cc1ncc(Cl)c(C2(C(=O)N[C@@H](CCOCCCCc3ccc4c(n3)NCCC4)C(=O)O)CC2)n1` [Compound 73, N-(1-(5-chloro-2-methylpyrimidin-4-yl)cyclopropane-1-carbonyl)-O-(4-(5,6,7,8-tetrahydro-1,8-naphthyridin-2-yl)butyl)-L-homoserine], the figures for the IC50 on human integrin αVβ8, on human integrin αVβ1 and on human integrin αVβ6 were under 50 nM, under 50 nM and at least 500 nM, respectively.

As for `COc1cccnc1C1(C(=O)N[C@@H](CCOCCCCc2ccc3c(n2)NCCC3)C(=O)O)CC1` [Compound 30, N-(1-(3-methoxypyridin-2-yl)cyclopropane-1-carbonyl)-O-(4-(5,6,7,8-tetrahydro-1,8-naphthyridin-2-yl)butyl)-L-homoserine], the figures for the IC50 on human integrin αVβ8, on human integrin αVβ1 and at human integrin αVβ6 were 50 to 150 nM, 50 to 150 nM and at least 500 nM, respectively.

As for `O=C(Cc1ccccc1)N[C@@H](CCOCCCCc1ccc2c(n1)NCCC2)C(=O)O` [Compound 81, N-(2-phenylacetyl)-O-(4-(5,6,7,8-tetrahydro-1,8-naphthyridin-2-yl)butyl)-L-homoserine], the figures for the IC50 on human integrin αVβ8, at human integrin αVβ1 and at human integrin αVβ6 were 50 to 150 nM, under 50 nM and at least 500 nM, respectively.

As for `O=C(O)[C@H](CCOCCCCc1ccc2c(n1)NCCC2)NC(=O)C1(c2ncccc2OC(F)F)CC1` [Compound 38, N-(1-(3-(difluoromethoxy)pyridin-2-yl)cyclopropane-1-carbonyl)-O-(4-(5,6,7,8-tetrahydro-1,8-naphthyridin-2-yl)butyl)-L-homoserine], the results for the IC50 on human integrin αVβ8, at human integrin αVβ1 and at human integrin αVβ6 were under 50 nM, under 50 nM and at least 500 nM, respectively.

For the compound `Cc1ncc(F)cc1C1(C(=O)N[C@@H](CCOCCCCc2ccc3c(n2)NCCC3)C(=O)O)CC1` [Compound 28, N-(1-(5-fluoro-2-methylpyridin-3-yl)cyclopropane-1-carbonyl)-O-(4-(5,6,7,8-tetrahydro-1,8-naphthyridin-2-yl)butyl)-L-homoserine], the IC50 was under 50 nM on human integrin αVβ8, under 50 nM at human integrin αVβ1 and at least 500 nM at human integrin αVβ6.

Consider `O=C(O)[C@H](CCOCCCCc1ccc2c(n1)NCCC2)NC(=O)C1(c2ccccc2)CC1` [Compound 10, N-(1-phenylcyclopropane-1-carbonyl)-O-(4-(5,6,7,8-tetrahydro-1,8-naphthyridin-2-yl)butyl)-L-homoserine], for which the IC50 is 50 to 150 nM on human integrin αVβ8, under 50 nM at human integrin αVβ1 and at least 500 nM on human integrin αVβ6.

For the compound `Cc1ncnc(C)c1C1(C(=O)N[C@@H](CCOCCCCc2ccc3c(n2)NCCC3)C(=O)O)CC1` [Compound 41, N-(1-(4,6-dimethylpyrimidin-5-yl)cyclopropane-1-carbonyl)-O-(4-(5,6,7,8-tetrahydro-1,8-naphthyridin-2-yl)butyl)-L-homoserine], the IC50 is 50 to 150 nM on human integrin αVβ8, under 50 nM on human integrin αVβ1 and at least 500 nM at human integrin αVβ6.

Take `CC(C)(C(=O)N[C@@H](CCOCCCCc1ccc2c(n1)NCCC2)C(=O)O)c1c(F)cccc1OC(F)F` [Compound 5, N-(2-(2-(difluoromethoxy)-6-fluorophenyl)-2-methylpropanoyl)-O-(4-(5,6,7,8-tetrahydro-1,8-naphthyridin-2-yl)butyl)-L-homoserine]: the 50% inhibitory concentration (IC50) at human integrin αVβ8 is 50 to 150 nM; at human integrin αVβ1 it was under 50 nM; at human integrin αVβ6 it was at least 500 nM.

On to `O=C(O)[C@H](CCOCCCCc1ccc2c(n1)NCCC2)NC(=O)C1(c2cccc(Cl)c2)CCOCC1` [Compound 89, N-(4-(3-chlorophenyl)tetrahydro-2H-pyran-4-carbonyl)-O-(4-(5,6,7,8-tetrahydro-1,8-naphthyridin-2-yl)butyl)-L-homoserine], for which the IC50 was under 50 nM at human integrin αVβ8, under 50 nM on human integrin αVβ1 and over 500 nM on human integrin αVβ6.

Regarding `COc1nccnc1C1(C(=O)N[C@@H](CCOCCCCc2ccc3c(n2)NCCC3)C(=O)O)CC1` [Compound 50, N-(1-(3-methoxypyrazin-2-yl)cyclopropane-1-carbonyl)-O-(4-(5,6,7,8-tetrahydro-1,8-naphthyridin-2-yl)butyl)-L-homoserine], the IC50 is 50 to 150 nM on human integrin αVβ8, under 50 nM on human integrin αVβ1 and at least 500 nM at human integrin αVβ6.

As to `O=C(O)[C@H](CCOCCCCc1ccc2c(n1)NCCC2)NC(=O)C1(c2nccnc2C(F)(F)F)CC1` [Compound 67, O-(4-(5,6,7,8-tetrahydro-1,8-naphthyridin-2-yl)butyl)-N-(1-(3-(trifluoromethyl)pyrazin-2-yl)cyclopropane-1-carbonyl)-L-homoserine], the IC50 was under 50 nM at human integrin αVβ8, under 50 nM on human integrin αVβ1 and at least 500 nM on human integrin αVβ6.

On to `Cc1ncncc1C1(C(=O)N[C@@H](CCOCCCCc2ccc3c(n2)NCCC3)C(=O)O)CC1` [Compound 19, N-(1-(4-methylpyrimidin-5-yl)cyclopropane-1-carbonyl)-O-(4-(5,6,7,8-tetrahydro-1,8-naphthyridin-2-yl)butyl)-L-homoserine], for which the IC50 on human integrin αVβ8 was under 50 nM; on human integrin αVβ1, under 50 nM; at human integrin αVβ6 it was at least 500 nM.

In the case of `O=C(O)[C@H](CCOCCCCc1ccc2c(n1)NCCC2)NC(=O)C1(c2[nH]c(=O)ccc2Cl)CC1` [Compound 66, N-(1-(3-chloro-6-oxo-1,6-dihydropyridin-2-yl)cyclopropane-1-carbonyl)-O-(4-(5,6,7,8-tetrahydro-1,8-naphthyridin-2-yl)butyl)-L-homoserine], the values for the IC50 on human integrin αVβ8, at human integrin αVβ1 and at human integrin αVβ6 were under 50 nM, under 50 nM and at least 500 nM, respectively.

As for `Cc1ccncc1C1(C(=O)N[C@@H](CCOCCCCc2ccc3c(n2)NCCC3)C(=O)O)CC1` [Compound 16, N-(1-(4-methylpyridin-3-yl)cyclopropane-1-carbonyl)-O-(4-(5,6,7,8-tetrahydro-1,8-naphthyridin-2-yl)butyl)-L-homoserine], the concentration for half-maximal inhibition (IC50) is under 50 nM on human integrin αVβ8, under 50 nM at human integrin αVβ1 and at least 500 nM at human integrin αVβ6.

In the case of `Cc1ccccc1C1(C(=O)N[C@@H](CCOCCCCc2ccc3c(n2)NCCC3)C(=O)O)CC1` [Compound 17, O-(4-(5,6,7,8-tetrahydro-1,8-naphthyridin-2-yl)butyl)-N-(1-(o-tolyl)cyclopropane-1-carbonyl)-L-homoserine], the IC50 is under 50 nM at human integrin αVβ8, 50 to 150 nM at human integrin αVβ1 and at least 500 nM at human integrin αVβ6.

As to `N#Cc1ccccc1C1(C(=O)N[C@@H](CCOCCCCc2ccc3c(n2)NCCC3)C(=O)O)CC1` [Compound 45, N-(1-(2-cyanophenyl)cyclopropane-1-carbonyl)-O-(4-(5,6,7,8-tetrahydro-1,8-naphthyridin-2-yl)butyl)-L-homoserine], the results for the IC50 on human integrin αVβ8, on human integrin αVβ1 and at human integrin αVβ6 were 50 to 150 nM, under 50 nM and at least 500 nM, respectively.

Turning to `O=C(O)[C@H](CCOCCCCc1ccc2c(n1)NCCC2)NC(=O)C1(c2cnccn2)CC1` [Compound 11, N-(1-(pyrazin-2-yl)cyclopropane-1-carbonyl)-O-(4-(5,6,7,8-tetrahydro-1,8-naphthyridin-2-yl)butyl)-L-homoserine], the IC50 is 50 to 150 nM on human integrin αVβ8, under 50 nM on human integrin αVβ1 and at least 500 nM at human integrin αVβ6.

Consider `COc1nccc(Cl)c1C1(C(=O)N[C@@H](CCOCCCCc2ccc3c(n2)NCCC3)C(=O)O)CC1` [Compound 44, N-(1-(4-chloro-2-methoxypyridin-3-yl)cyclopropane-1-carbonyl)-O-(4-(5,6,7,8-tetrahydro-1,8-naphthyridin-2-yl)butyl)-L-homoserine], for which the IC50 on human integrin αVβ8 is 50 to 150 nM; on human integrin αVβ1 it was under 50 nM; on human integrin αVβ6 it was at least 500 nM.

Take `Cc1cccnc1C1(C(=O)N[C@@H](CCOCCCCc2ccc3c(n2)NCCC3)C(=O)O)CC1` [Compound 29, N-(1-(3-methylpyridin-2-yl)cyclopropane-1-carbonyl)-O-(4-(5,6,7,8-tetrahydro-1,8-naphthyridin-2-yl)butyl)-L-homoserine]: the figures for the concentration for half-maximal inhibition (IC50) on human integrin αVβ8, on human integrin αVβ1 and on human integrin αVβ6 were under 50 nM, 50 to 150 nM and at least 500 nM, respectively.

As for `O=C(O)[C@H](CCOCCCCc1ccc2c(n1)NCCC2)NC(=O)C1(n2ccc(Cl)n2)CC1` [Compound 55, N-(1-(3-chloro-1H-pyrazol-1-yl)cyclopropane-1-carbonyl)-O-(4-(5,6,7,8-tetrahydro-1,8-naphthyridin-2-yl)butyl)-L-homoserine], the IC50 was 50 to 150 nM at human integrin αVβ8, under 50 nM on human integrin αVβ1 and at least 500 nM on human integrin αVβ6.

Consider `COc1ncccc1C1(C(=O)N[C@@H](CCOCCCCc2ccc3c(n2)NCCC3)C(=O)O)CC1` [Compound 35, N-(1-(2-methoxypyridin-3-yl)cyclopropane-1-carbonyl)-O-(4-(5,6,7,8-tetrahydro-1,8-naphthyridin-2-yl)butyl)-L-homoserine], for which the IC50 on human integrin αVβ8 is 50 to 150 nM; at human integrin αVβ1, 50 to 150 nM; at human integrin αVβ6, at least 500 nM.
